Laboratory results from patent publication US20040097408A1, “Compounds regulating cell proliferation and differentiation” (priority 2001, published 2004).

Assays:
[1] = system: mitochondria of cancer cells; assay: accumulation of QR in mitochondria; assay type: cell-based
control EpH4-EV cells = assay: cytoblot of QR on normal cells; assay type: cell-based, mouse
Excerpt: (§1) The compound was included in cytoblot experiments, as described above, on the following cells: EpH4-A6 and control EpH4-EV cells and the following human breast cancer cell lines: FKBR3 (Neu positive cells); MDA-MD-468 (which over-express EGFR); and MCF-7 (which over-express Her3/ErbB3; EGFR and Neu).

[2] = system: EpH4-A6, FKBR3, MDA-MD-468 and MCF-7 cells; assay: cytoblot of QR on transformed cells; assay type: cell-based
Excerpt: as §1

A6 cells = assay: effect of FCCP and valinomycin on F16 accumulation in mitochondria; assay type: cell-based, mouse; settings: F16 3 μM
Experimental: In order to test the contribution of the mitochondrial membrane potential (ΔΨm) to the accumulation of F16 in mitochondria, the effect of FCCP, an uncoupler of mitochondrial respiration, and the effect of valinomycin, a potassium ionosphore, were tested.
The effect of the protonophore FCCP on F16 accumulation was performed as previously done for the colocalization experiments described above. EpH4-A6 cells preincubated with F16 (3 μM) were subsequently treated with 5 μM FCCP. Images were acquired immediately before, 1 min and 5 min after FCCP addition and visulized under 40× magnification.

Row | Compound | accumulation in mitochondria [1] | concentration inhibiting normal cells (control EpH4-EV cells) | proliferation of transformed cells at 10 nM ([2]; 10 nM) | proliferation of transformed cells at 100 nM ([2]; 100 nM) | concentration inhibiting proliferation of transformed cells (as low as) ([2]; all of the transformed cells tested) | effect of preincubation on F16 entry and accumulation in mitochondria (A6 cells)
1 | CC[n+]1c(/C=C/c2ccc(N(C)C)cc2)ccc2ccccc21 [QR, Quinaldine Red] | accumulate in mitochondria of cancer cells and essentially not in mitochondria of normal cells | ≥ 10 µM | partially inhibited | essentially completely inhibited | 10 nM | 
2 | N#CC(C#N)=NNc1ccc(OC(F)(F)F)cc1 [FCCP] |  |  |  |  |  | retarded the entry and greatly reduced the overall accumulation of F16 inside mitochondria
3 | CC(C)[C@@H]1NC(=O)[C@H](C)OC(=O)[C@@H](C(C)C)NC(=O)[C@@H](C(C)C)OC(=O)[C@H](C(C)C)NC(=O)[C@H](C)OC(=O)[C@@H](C(C)C)NC(=O)[C@@H](C(C)C)OC(=O)[C@H](C(C)C)NC(=O)[C@H](C)OC(=O)[C@@H](C(C)C)NC(=O)[C@@H](C(C)C)OC1=O [valinomycin] |  |  |  |  |  | retarded the entry and greatly reduced the overall accumulation of F16 inside mitochondria
